Data reported in patent publication US9133155B2, “Antibacterial agents: high-potency myxopyronin derivatives” (Rutgers, The State University of New Jersey, priority 2010, dated 2015).
Converted amounts (≈) assume the structure as drawn. Like-named read-outs stand apart in the source and are kept apart here.

Assays:
[1] = target: M. tuberculosis RNA polymerase (Mycobacterium tuberculosis, UniProt P9WGY7+P9WGY9); assay: Inhibition of Mycobacterium tuberculosis RNA polymerase (fluorescence-detected); format: biochemical
M. tuberculosis RNA polymerase, sequence (P9WGY5 whole entry, the tested form may be a part): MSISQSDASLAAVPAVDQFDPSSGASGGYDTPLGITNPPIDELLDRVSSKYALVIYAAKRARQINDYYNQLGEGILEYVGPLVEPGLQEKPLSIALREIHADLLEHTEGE
M. tuberculosis RNA polymerase, sequence (P9WGZ1 whole entry, further chain, the tested form may be a part): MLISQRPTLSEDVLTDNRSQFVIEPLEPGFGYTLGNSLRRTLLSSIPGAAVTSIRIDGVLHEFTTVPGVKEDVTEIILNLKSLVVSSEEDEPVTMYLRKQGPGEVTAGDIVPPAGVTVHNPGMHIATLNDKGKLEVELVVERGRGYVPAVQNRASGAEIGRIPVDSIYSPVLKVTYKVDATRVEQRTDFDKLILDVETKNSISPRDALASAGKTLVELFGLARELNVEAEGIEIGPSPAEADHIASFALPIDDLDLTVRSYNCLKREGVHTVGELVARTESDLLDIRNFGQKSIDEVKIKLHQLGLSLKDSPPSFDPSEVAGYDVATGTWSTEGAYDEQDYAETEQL
M. tuberculosis RNA polymerase, sequence (P9WGY9 whole entry, the tested form may be a part): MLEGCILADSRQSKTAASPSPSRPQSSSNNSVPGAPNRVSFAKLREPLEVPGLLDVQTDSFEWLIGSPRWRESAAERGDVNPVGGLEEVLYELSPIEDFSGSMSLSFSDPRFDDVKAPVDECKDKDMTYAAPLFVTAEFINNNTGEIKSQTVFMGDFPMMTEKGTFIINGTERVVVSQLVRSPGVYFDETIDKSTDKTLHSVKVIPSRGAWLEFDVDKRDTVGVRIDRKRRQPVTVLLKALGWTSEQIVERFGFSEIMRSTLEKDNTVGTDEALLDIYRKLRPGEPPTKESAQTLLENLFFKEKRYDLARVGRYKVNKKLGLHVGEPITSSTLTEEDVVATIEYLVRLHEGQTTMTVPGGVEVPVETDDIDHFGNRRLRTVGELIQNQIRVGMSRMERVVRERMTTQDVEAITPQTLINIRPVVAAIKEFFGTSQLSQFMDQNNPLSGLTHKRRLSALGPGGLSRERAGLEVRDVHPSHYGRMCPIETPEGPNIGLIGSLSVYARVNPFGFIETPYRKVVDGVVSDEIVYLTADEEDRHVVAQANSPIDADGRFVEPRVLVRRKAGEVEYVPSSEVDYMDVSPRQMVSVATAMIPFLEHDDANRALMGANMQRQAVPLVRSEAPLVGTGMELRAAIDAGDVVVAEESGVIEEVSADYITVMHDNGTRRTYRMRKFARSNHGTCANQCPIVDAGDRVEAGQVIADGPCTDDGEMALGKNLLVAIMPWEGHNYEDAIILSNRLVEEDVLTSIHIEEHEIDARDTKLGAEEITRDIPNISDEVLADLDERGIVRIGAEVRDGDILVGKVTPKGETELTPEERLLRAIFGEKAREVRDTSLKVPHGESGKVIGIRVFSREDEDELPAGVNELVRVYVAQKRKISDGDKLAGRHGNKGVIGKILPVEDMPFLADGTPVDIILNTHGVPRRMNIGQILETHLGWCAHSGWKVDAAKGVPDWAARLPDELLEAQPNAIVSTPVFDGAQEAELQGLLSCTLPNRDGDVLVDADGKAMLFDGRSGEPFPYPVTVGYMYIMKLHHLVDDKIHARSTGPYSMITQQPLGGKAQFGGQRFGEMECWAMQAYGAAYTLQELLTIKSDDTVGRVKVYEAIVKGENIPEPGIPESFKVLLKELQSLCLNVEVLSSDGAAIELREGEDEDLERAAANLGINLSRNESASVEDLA
M. tuberculosis RNA polymerase, sequence (P9WGY7 whole entry, the tested form may be a part): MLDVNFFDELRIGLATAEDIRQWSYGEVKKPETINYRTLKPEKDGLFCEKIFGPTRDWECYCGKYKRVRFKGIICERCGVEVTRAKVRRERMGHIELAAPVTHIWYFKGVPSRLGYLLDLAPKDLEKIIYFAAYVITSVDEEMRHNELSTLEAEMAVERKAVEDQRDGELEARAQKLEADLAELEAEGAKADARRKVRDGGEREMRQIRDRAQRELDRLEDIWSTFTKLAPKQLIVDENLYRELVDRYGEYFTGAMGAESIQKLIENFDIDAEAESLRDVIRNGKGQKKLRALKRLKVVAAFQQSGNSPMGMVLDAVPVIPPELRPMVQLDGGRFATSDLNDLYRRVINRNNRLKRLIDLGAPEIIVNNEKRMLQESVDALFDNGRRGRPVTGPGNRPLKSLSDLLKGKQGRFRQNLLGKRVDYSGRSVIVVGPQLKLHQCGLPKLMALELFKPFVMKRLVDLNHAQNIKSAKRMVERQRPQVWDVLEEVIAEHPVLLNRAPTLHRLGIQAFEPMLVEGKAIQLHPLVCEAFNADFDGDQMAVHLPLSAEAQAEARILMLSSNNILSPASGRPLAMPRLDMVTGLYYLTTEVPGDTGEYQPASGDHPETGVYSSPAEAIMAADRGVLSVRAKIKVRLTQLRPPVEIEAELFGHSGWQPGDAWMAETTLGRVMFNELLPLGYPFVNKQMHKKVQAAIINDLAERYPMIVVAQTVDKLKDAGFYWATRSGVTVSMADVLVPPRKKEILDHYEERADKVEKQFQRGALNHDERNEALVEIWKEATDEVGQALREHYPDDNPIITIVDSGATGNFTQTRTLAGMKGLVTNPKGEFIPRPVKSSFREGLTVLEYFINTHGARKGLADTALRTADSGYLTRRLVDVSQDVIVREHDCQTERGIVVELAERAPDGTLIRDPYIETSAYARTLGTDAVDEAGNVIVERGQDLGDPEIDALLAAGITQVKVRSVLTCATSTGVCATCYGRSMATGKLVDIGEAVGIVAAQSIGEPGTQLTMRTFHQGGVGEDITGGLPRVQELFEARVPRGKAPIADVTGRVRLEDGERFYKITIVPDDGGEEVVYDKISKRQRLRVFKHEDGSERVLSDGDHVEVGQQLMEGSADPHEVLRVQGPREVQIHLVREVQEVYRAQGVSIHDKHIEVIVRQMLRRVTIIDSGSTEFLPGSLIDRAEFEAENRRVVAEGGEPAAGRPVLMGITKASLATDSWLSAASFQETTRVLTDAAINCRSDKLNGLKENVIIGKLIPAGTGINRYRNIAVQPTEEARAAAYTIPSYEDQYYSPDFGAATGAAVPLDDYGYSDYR
M. tuberculosis RNA polymerase, sequence (P9WGI1 whole entry, further chain, the tested form may be a part): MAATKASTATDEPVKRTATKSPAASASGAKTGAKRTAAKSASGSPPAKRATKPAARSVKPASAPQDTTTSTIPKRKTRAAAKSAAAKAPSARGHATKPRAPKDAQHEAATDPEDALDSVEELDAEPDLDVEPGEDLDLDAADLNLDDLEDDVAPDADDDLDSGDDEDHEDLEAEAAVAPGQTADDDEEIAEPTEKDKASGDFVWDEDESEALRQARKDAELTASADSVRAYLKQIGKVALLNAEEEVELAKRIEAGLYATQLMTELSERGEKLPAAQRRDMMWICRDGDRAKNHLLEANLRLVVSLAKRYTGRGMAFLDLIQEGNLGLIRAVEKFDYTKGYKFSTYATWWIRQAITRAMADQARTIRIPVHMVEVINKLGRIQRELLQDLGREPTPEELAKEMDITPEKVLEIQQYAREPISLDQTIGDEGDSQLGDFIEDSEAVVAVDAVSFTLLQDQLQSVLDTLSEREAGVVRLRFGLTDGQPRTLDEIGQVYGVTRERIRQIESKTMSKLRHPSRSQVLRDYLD
Method: (§1) Fluorescence-detected RNA polymerase assays with E. coli RNA polymerase were performed by a modification of the procedure of Kuhlman et al., 2004 [Kuhlman, P., Duff, H. & Galant, A. (2004) A fluorescence-based assay for multisubunit DNA-dependent RNA polymerases. Anal. Biochem. 324, 183-190]. Reaction mixtures contained (20 μl): 0-100 nM test compound, 75 nM E. coli RNA polymerase σ^70 holoenzyme, 20 nM 384 bp DNA fragment containing the bacteriophage T4 N25 promoter, 100 μM ATP, 100 μM GTP, 100 μM UTP, 100 μM CTP, 50 mM Tris-HCl, pH 8.0, 100 mM KCl, 10 mM MgCl2, 1 mM DTT, 10 μg/ml bovine serum albumin, and 5.5% glycerol. Reaction components other than DNA and NTPs were pre-incubated for 10 min at 37° C. Reactions were carried out by addition of DNA and incubation for 5 min at 37° C., followed by addition of NTPs and incubation for 60 min at 37° C. DNA was removed by addition of 1 μl 5 mM CaCl2 and 2 U DNaseI (Ambion, Inc.), followed by incubation for 90 min at 37° C. RNA was quantified by addition of 100 μl RiboGreen RNA Quantitation Reagent (Invitrogen, Inc.; 1:500 dilution in Tris-HCl, pH 8.0, 1 mM EDTA), followed by incubation for 10 min at 25° C., followed by measurement of fluorescence intensity [excitation wavelength=485 nm and emission wavelength=535 nm; QuantaMaster QM1 spectrofluorometer (PTI, Inc.)].
Fluorescence-detected RNA polymerase assays with M. tuberculosis RNA polymerase were performed as in Example 17.1, using reaction mixtures containing (20 μl): 0-100 nM test compound, 75 nM M. tuberculosis RNA polymerase core enzyme, 300 nM M. tuberculosis σ^A, 20 nM 384 bp DNA fragment containing the bacteriophage […] N25 promoter, 100 μM ATP, 100 μM GTP, 100 μM UTP, 100 μM CTP, 40 mM Tris-HCl, pH 8.0, 80 mM NaCl, 5 mM MgCl2, 2.5 mM DTT, and 12.7% glycerol.

[2] = system: Acinetobacter baumannii ATCC 19606; assay: Inhibition of bacterial growth in culture (MIC, spiral gradient endpoint); format: cell-based; conditions: for MIC: Acinetobacter baumannii, ATCC19606, Mueller-Hinton II agar, 16 h at 37° C.
Description: (§2) Minimum inhibitory concentrations (MICs) for Staphylococcus aureus ATCC 12600, Enterococcus faecalis ATCC 19433, Acinetobacter baumannii ATCC 19606, and Escherichia coli D21f2tolC were quantified using spiral gradient endpoint assays, essentially as described [Wallace, A. and Corkill, J. (1989) Application of the spiral plating method to study antimicrobial action. J. Microbiol. Meths. […] Int. J. Exp. Clin. Chemother. 3, 31-38; Schalkowsky S. (1994) Measures of susceptibility from a spiral gradient of drug concentrations. Adv. Exp. Med. Biol. 349, 107-120]. Assays employed exponential-gradient plates containing 150 mm×4 mm Mueller-Hinton II cation-adjusted agar and 0.4-100 μg/ml of test compound. Plates were prepared using an Autoplate 4000 spiral plater (Spiral Biotech, Inc.). Saturated overnight cultures were swabbed radially onto plates, and plates were incubated for 16 h at 37° C. For each culture, the streak length was measured using a clear plastic template (Spiral Biotech, Inc.), the test-compound concentration at the streak endpoint was calculated using the program SGE (Spiral Biotech, Inc.), and the MIC was defined as the calculated test-compound concentration at the streak endpoint.

[3] = system: Staphylococcus aureus ATCC 12600; assay: as above; format: cell-based; conditions: for MIC: Staphylococcus aureus, ATCC12600, Mueller-Hinton II agar, 16 h at 37° C., read-out: MIC S. aureus 12600
Description: as §2

[4] = system: Enterococcus faecalis ATCC 19433; assay: as above; format: cell-based; conditions: for MIC: Enterococcus faecalis, ATCC19433, Mueller-Hinton II agar, 16 h at 37° C., read-out: MIC E. faecalis 19433
Description: as §2

[5] = system: Escherichia coli D21f2tolC; assay: as above; format: cell-based; conditions: 16 h, read-out: MIC E. coli D21f2tolC
Description: as §2

Staphylococcus aureus = assay: Antibacterial efficacy in mouse model of Staphylococcus aureus systemic infection (peritonitis model); format: in vivo, Swiss Webster mice; conditions: for effect on survival in a mouse model of Staphylococcus aureus infection (in words): summary of Tables 4a-4c
Method: (§3) Female Swiss Webster mice were experimentally infected by intraperitoneal administration of 5×10^7 colony forming units of Staphylococcus aureus in 10% hog gastric mucin. Test compounds (2-3 mg/ml in vehicle [9-19% dimethyacetamide/8-16% Cremophor EL in water, v/v]), positive controls (2 mg/ml vancomycin in vehicle), and negative controls (vehicle only and saline only), were administered by intravenous injection into a tail vein 1 h and 5 h post-infection (200 μl per injection). Survival was monitored for 12 h post-infection, or for 24, 48, and 72 h post-infection. At the end of the monitoring period, surviving animals were euthanized.

S. aureus RNA polymerase = S. aureus RNA polymerase (Staphylococcus aureus, UniProt P47768+Q2G0N5); assay: Inhibition of Staphylococcus aureus RNA polymerase (fluorescence-detected); format: biochemical
[6] = target: E. coli RNA polymerase σ^70 holoenzyme (Escherichia coli, UniProt P0A8T7+P0A8V2); assay: Inhibition of Escherichia coli RNA polymerase (fluorescence-detected); format: biochemical; conditions: read-out: IC50 E. coli RNAP
Method: as §1

[7] = Tolerability upon intravenous injection (peritonitis model study); format: in vivo, Swiss Webster mice; conditions: daily total doses of at least 30 mg/kg; vehicles containing 9% to 19% dimethylacetamide and 8% to 16% Cremophor EL
Method: as §3

[8] = Table 4c, total dose 50 mg/kg iv, vehicle 9% dimethylacetamide/8% Cremophor EL/83% water

Row | SMILES | IC50 [1] | MIC [2] | inhibition of Acinetobacter baumannii (in words) ([2]; summary of Table 3) | MIC [3] | MIC [4] | MIC [5] | 12-hour survival (Staphylococcus aureus; Table 4b, total dose 50 mg/kg iv, vehicle 19% dimethylacetamide/16% Cremophor EL/73% water) | 24-hour survival (Staphylococcus aureus; [8]) | 48-hour survival (Staphylococcus aureus; [8]) | 72-hour survival (Staphylococcus aureus; [8]) | effect on survival in a mouse model of Staphylococcus aureus infection (in words) (Staphylococcus aureus) | IC50 (S. aureus RNA polymerase) | IC50 [6] | acute toxicity upon intravenous injection [7] | IC50 ([1]; read-out: IC50 M. tuberculosis RNAP) | inhibition of Staphylococcus aureus compared with Myx B and 7-desmethyl-Myx B ([3]; summary of Table 3) | inhibition of Enterococcus faecalis compared with Myx B and 7-desmethyl-Myx B ([4]; summary of Table 3) | 12-hour survival (Staphylococcus aureus; Table 4a, total dose 30 mg/kg iv, 1 h and 5 h post-infection, vehicle 19% dimethylacetamide/8% Cremophor EL/73% water) | IC50 (S. aureus RNA polymerase; read-out: IC50 S. aureus RNAP)
1 | CCCC/C(C)=C/C=C(\C)C(=O)c1c(O)cc(C(C)CC/C=C/NC(=O)OC)oc1=O (centres unmarked) [Myx B, Methyl ((E)-5-(3-((2E,4E)-2,5-dimethylnona-2,4-dienoyl)-4-hydroxy-2-oxo-2H-pyran-6-yl)hex-1-en-1-yl)carbamate, reference compound] | 130 nM | > 40 µg/mL | not detectably inhibited | 0.78 µg/mL (≈ 1.81 µM) | 13 µg/mL (≈ 30.1 µM) | 0.098 µg/mL (≈ 0.227 µM) | 50% | 75% | 50% | 50% | increase survival | 66 nM | 13 nM | tolerated without acute toxicity | – | – | – | – | –
2 | CCCCC/C(C)=C/C=C(\C)C(=O)c1c(O)cc(CCC/C=C/NC(=O)OC)oc1=O [compound 5, Methyl ((E)-5-(3-((2E,4E)-2,5-dimethyldeca-2,4-dienoyl)-4-hydroxy-2-oxo-2H-pyran-6-yl)pent-1-en-1-yl)carbamate] | – | 19 µg/mL (≈ 44 µM) | – | 0.44 µg/mL (≈ 1.02 µM) | 12 µg/mL (≈ 27.8 µM) | 0.076 µg/mL (≈ 0.176 µM) | – | – | – | – | increase survival | – | 3.9 nM | tolerated without acute toxicity | 32 nM | more potently than Myx B and 7-desmethyl-Myx B | more potently than Myx B and 7-desmethyl-Myx B | 100% | 15 nM
